Assays:
Cytokine 12 Panel [1] = test: Cytokine 12 panels after IV dose of 50 mg synthetic Fibrinopeptide A; format: in vivo, human; parameters: IL-10 / TNF-α / IL-2 / IL-12: unit not given here; settings: for IFN-γ / IL-4 / IL-5 / IL-6 / IL-8 / IL-13: nl: 0-5; for IL-12: nl: 0-6; for IL-2: nl: 0-12; for IL-10: nl: 0-18; for TNF-α: nl: 0-22; for IL-1β: nl: 0-36; for IL-2R: nl: 0-1033
Excerpt: Peptide was suspended in an appropriate medium and a healthy volunteer took the preparation daily for two weeks, drawing blood for a cytokine 12 panel every five days. Due to the size of the molecules absorption from the mucosal route seemed unlikely, and the rapid digestion of peptides in the stomach would eliminate their efficacy in a true oral route. This same healthy volunteer had lab work drawn right before receiving an IV dose of synthetic Fibrinopeptide A. The IV dose was expected to have a more profound therapeutic effect, since treatment was simulating a normal intravascular biologic process. […] (Table 3). [table] In addition to these elevations, a mild elevation of Interleukin-6 was also observed. Interleukin-6 is a pro-inflammatory cytokine and is a very strong stimulator of the innate immune system. […] The most significant of these tests is the blood drawn one month after the IV dose was given. In this test the marked elevation of at least IL-10 and IL-1β, which had been present in each of the other dosages given by any route, was observed. […] This location for primary activity also explains the stimulation of the adaptive immune system over the innate immune response, as the lymphatic system is more involved in the adaptive response, while the vascular system is more involved in the innate response. The response to orally administered Fibrinopeptide A also solidifies this location of activity as transmucosal absorption occurs almost exclusively through the lymphatic route, occurs rapidly for those molecules which are absorbed, and the oral submucosal region (especially the sublingual region) has an extensive lymphatic drainage with rapid access to the cells which would produce this type of response while at least partially being shielded from the enzymes that inactivate the peptides of this invention. Since chronic fibrin deposition in the extravascular space is always pathologic and pro-inflammatory, it is not surprising that patients have a mechanism triggered by this deposition to aid in the removal of these substances. […] By signaling the need for removal from the extravascular space, the same process should occur for similar chronic deposits in the subintimal space.

Cytokine 12 Panel [2] = test: Cytokine 12 panels following oral administration of FPA (Table 6); format: in vivo, human; parameters: IL-12 / IL-10 / TNF-α / IL-2: unit not given here; settings: for IFN-γ / IL-4 / IL-5 / IL-6 / IL-8 / IL-13: nl: 0-5; for IL-12: nl: 0-6; for IL-2: nl: 0-12; for IL-10: nl: 0-18; for TNF-α: nl: 0-22; for IL-1β: nl: 0-36; for IL-2R: nl: 0-1033
Excerpt: One of these patients was the same patient previously utilized, while the other was relatively neve to any previous Fibrinopeptide A treatment. The patient had taken two doses orally approximately seven weeks prior to this treatment, no lab work had been obtained with this prior dosing. […] This again elucidates the lack of effect of Fibrinopeptide A when given IV and the importance of utilizing a lymphatic route when treating with Fibrinopeptide A, and probably the others as well. [table] The data in table 6 further illustrates the up regulation of all aspects of the immune system in response to this persistent exposure to synthetic activated fibrinopeptide A through a lymphatic administration.

[3] = 2 weeks back on FPA (different carrier)

## ADSGEGDFLAEGGGV (listed as Homo sapiens) [Fibrinopeptide A]
Cytokine 12 Panel [1]; 10 Hours after IV 50 mg
  IFN-γ: <5
  IL-4: <5
  IL-5: <5
  IL-6: 11
  IL-8: <5
  IL-12: <5
  IL-2: <5
  IL-10: 87
  TNF-α: <5
  IL-1β: 52
  IL-2R: 475
Cytokine 12 Panel [1]; 14 hours after IV 50 mg
  IFN-γ: <5
  IL-4: <5
  IL-5: <5
  IL-6: 10
  IL-8: <5
  IL-12: <5
  IL-2: <5
  IL-10: 87
  TNF-α: <5
  IL-1β: 54
  IL-2R: 492
Cytokine 12 Panel [1]; 60 hours after IV 50 mg
  IFN-γ: <5
  IL-4: <5
  IL-5: <5
  IL-6: 7
  IL-8: <5
  IL-12: <5
  IL-2: <5
  IL-10: 74
  TNF-α: <5
  IL-1β: 54
  IL-2R: 425
Cytokine 12 Panel [1]; 30 days after IV 50 mg
  IFN-γ: <5
  IL-4: <5
  IL-5: <5
  IL-6: <5
  IL-8: <5
  IL-13: <5
  IL-12: <5
  IL-2: <5
  IL-10: 22
  TNF-α: <5
  IL-1β: <5
  IL-2R: 546
Cytokine 12 Panel [1]; IV dose 10 times stronger than the subcutaneous dosage given previously
  response of the cytokine panel to IV administration: no appreciable response
Cytokine 12 Panel [1]; Pre and 1 month after IV Use
  IFN-γ: <5
  IL-4: <5
  IL-5: <5
  IL-6: <5
  IL-8: <5
  IL-13: <5
  IL-12: <5
  IL-2: <5
  IL-10: 22
  TNF-α: <5
  IL-1β: <5
  IL-2R: 546
Cytokine 12 Panel [2]; 2 Weeks off FPA
  IFN-γ: <5
  IL-4: <5
  IL-5: 6
  IL-6: 66
  IL-8: 8
  IL-13: 8
  IL-12: 6
  IL-2: 7
  IL-10: 230
  TNF-α: <5
  IL-1β: 37
  IL-2R: 255
Cytokine 12 Panel [2]; [3]
  IFN-γ: 5
  IL-4: <5
  IL-5: 6
  IL-6: 63
  IL-8: 8
  IL-13: 9
  IL-12: 6
  IL-2: 7
  IL-10: 204
  TNF-α: <5
  IL-1β: 48
  IL-2R: 268
Cytokine 12 Panel [2]; oral, 1 Week
  IFN-γ: <5
  IL-4: <5
  IL-5: <5
  IL-6: <5
  IL-8: <5
  IL-13: <5
  IL-12: <5
  IL-2: <5
  IL-10: 141
  TNF-α: <5
  IL-1β: 30
  IL-2R: 504
Cytokine 12 Panel [2]; oral, 2 weeks
  IFN-γ: 5
  IL-4: <5
  IL-5: 5
  IL-6: 77
  IL-8: 8
  IL-13: 6
  IL-12: 6
  IL-2: 7
  IL-10: 183
  TNF-α: <5
  IL-1β: 83
  IL-2R: 254

— patent US20110318375A1, “Immunomodulatory Therapeutic Agents” (priority 2009, published 2011)
